These results are taken from patent publication US10512656B2, “Compositions and methods for the treatment of lysosomal storage disorders and disorders characterized by lysosomal dysfunction” (Baylor College of Medicine, priority 2016, dated 2019).

For assay [1], the system named is TFEB. The experiment in a line: Serum re-stimulation of serum-starved Tsc2-/- cells, TFEB localization. The class given is cell-based, mouse. Conditions: preincubation with MK2206. As to the method:
FIG. 15. Serum stimulation modulates subcellular localization of TFEB by regulating Akt activity. (a) WT and Tsc2^−/− cells were serum starved (16 h), treated with MK2206 in the last two hr of starvation where indicated, and stimulated with dialyzed serum for the last 30 min when indicated. Cell lysates were probed with antibodies as indicated. (b) WT and Tsc2^−/− cells were transiently transfected with TFEB-Flag and treated as in (a) and analyzed by immunofluorescence confocal microscopy. Scale bar is 60 μm.

For assay [2], the system named is TFE3. Description: TFE3 nuclear translocation in HeLa cells. The class given is cell-based, human. Conditions: HeLa cells transfected with TFE3-3×Flag. The source says:
FIG. 23. Pharmacological inhibition of AKT induces nuclear translocation of TFE3 and MITF. HeLa cells were transiently transfected with TFE3-3×Flag (a) and MITF-3×Flag (b) and analyzed by confocal microscopy. Scale bar is 10 μm.

Assay [3] deals with TFEB. The experiment in a line: TFEB nuclear translocation in WT and Tsc2-/- MEFs. It is filed as cell-based, mouse. The conditions noted are these: Tsc2-/- MEFs (constitutively active mTORC1) and control MEFs. Here is the method:
(§1) (b) Quantification of TFEB subcellular localization (C, cytoplasmic; N, nuclear) after 24 h of trehalose treatment (Tre) or in untreated cells (UT). Scale bars in a, b is 40 μm. (c) Immunoblot analyses show expression levels of substrates downstream of mTORC1. Wild-type (WT) and TSC2 null MEF cells were treated with trehalose (Tre; 100 mM) for 24 h or left untreated. As controls, cells were treated with Torin 1 (300 nM) or rapamycin (300 nM) for 2 h before extracting the lysates. Phospho- and total S6K1 (P-S6K1 and T-S6K1), phospho- and total S6 (P-S6 and T-S6) and phospho- and total 4E-BP1 (P-4E-BP1 and T-4E-BP1) were detected as readouts of mTORC1 activity. […] (f) HeLa cells co-transfected with TFEB-3×FLAG and mTOR or (g) TFEB-3×FLAG and constitutively active mTOR (CA-mTOR, […]) constructs were treated with trehalose (100 mM for 24 h) or left untreated before immunofluorescent labelling of TFEB (red) and mTOR (green) with FLAG and mTOR antibodies, respectively. Scale bar, 10 μm (d-g). Data represent means±s.e.m.
(§2) For immunofluorescence assay, cells were grown on coverslips in 24-well plates. After the treatment, cells were washed with PBS and fixed with methanol for 10 min. Cells were then blocked with blocking reagent (0.1% saponin, 10% bovine serum in PBS) for 1 h and incubated with appropriate primary antibody(s) (1:100) for 3 h at room temperature. […]

Assay [4] has as its system Cln3^Δex7-8 mice. Description: Hot plate test (pain sensitivity). It is filed as in vivo, mouse. Conditions: six-month-old Cln3^Δex7-8 mice, 50° C. surface. The text has this: FIG. 1. Amelioration of disease pathology in JNCL mice fed with trehalose. […] Treated (Tre) Cln3^Δex7-8 mice: n=13. Untreated (UT) Cln3^4ex7-8 mice: n=12. (b) Weight of brains from 12-month-old WT and Cln3^Δex7-8 mice with or without trehalose treatment. All groups of mice, n=4 or 5. (c) Fractional anisotropy of brains from 12-month-old WT and Cln3^Δex7-8 mice with or without trehalose treatment. Left panel: representative coronal images of the four groups of brains; corpus callosa are indicated by the yellow arrowhead. Right panel: quantification of callosal volume. All groups of mice, n=3 or 4. Scale bar, […]. Three-dimensional reconstructions of the corpus callosum in mice from treated and control groups are reported in Supplementary Movies 1-4. (d) In the hot plate test, Cln3^Δex7-8 mice respond slower when placed on a 50° C. heated metal surface compared with wild-type (WT) littermates, indicating reduced pain sensitivity. Trehalose (Tre) treatment rescued this phenotype in Cln3^Δex7-8 mice. All groups of mice, n=14-19. Data represent means±s.e.m. *P<0.05, **P<0.01, ***P<0.001.
(Hot-plate and tail-flick tests time the reaction to a heat stimulus.)

Assay [5] deals with TFEB S211. Description: TFEB S211 phosphorylation (Phospho(Ser)-14-3-3 binding motif immunoblot). It is filed as cell-based, human. Conditions: HeLa cells transfected with TFEB-Flag, trehalose 24 h. As to the method:
FIG. 9. […] TFEB-Flag was immunoprecipitated from HeLa cells transfected with TFEB-Flag and treated with trehalose for 24 h or left untreated. Immunoblot analyses were performed using antibody against Phospho(Ser)-14-3-3 binding motif and control antibodies.
Background: In western blotting, separated proteins are transferred to a membrane and probed.

Assay [6] has as its target T1, GSK3β (Homo sapiens, UniProt P49841).
T1 construct: endogenous in cells; host or cells: HeLa
The experiment in a line: GSK3β immunoblot in HeLa cells. The class given is cell-based. Conditions: trehalose 24 h. The source says: FIG. 16. […] GAPDH was used as a loading control. […] Images have been cropped for presentation.

In assay [7] the test system is Cln3^Δex7-8 mice. Description: Storage burden (autofluorescent storage material, confocal thresholding). The conditions noted are these: S1BF and VPM/VPL, 7- and 12-month-old Cln3^Δex7-8 mice. It is filed as in vivo, mouse. Here is the method: To analyse the relative level of the autofluorescent storage material present in each brain region, mouse brain sections spanning the S1BF and VPM/VPL were mounted onto gelatin-chrome-coated slides and cover-slipped with Vectashield (Vector Laboratories, Peterborough, UK). Non-overlapping images from each section were captured at ×63 magnification using a Leica SP5 confocal microscope and a 488 nm excitation laser (Leica Microsystem). Thresholding image analysis was performed to determine the storage burden present in each region. During image capture, all laser parameters and calibrations were kept constant. Semiquantitative thresholding image analysis was carried out using ImageJ (NIH).

The subject of assay [8] is TFEB. The experiment in a line: TFEB nuclear translocation in HeLa cells with WT or constitutively active mTOR. Conditions: cells transfected with WT mTOR or mTOR^E2419K, trehalose 100 mM 24 h. It is filed as cell-based, human. Here is the method: as §1, §2

T1 sequence (P49841 whole entry): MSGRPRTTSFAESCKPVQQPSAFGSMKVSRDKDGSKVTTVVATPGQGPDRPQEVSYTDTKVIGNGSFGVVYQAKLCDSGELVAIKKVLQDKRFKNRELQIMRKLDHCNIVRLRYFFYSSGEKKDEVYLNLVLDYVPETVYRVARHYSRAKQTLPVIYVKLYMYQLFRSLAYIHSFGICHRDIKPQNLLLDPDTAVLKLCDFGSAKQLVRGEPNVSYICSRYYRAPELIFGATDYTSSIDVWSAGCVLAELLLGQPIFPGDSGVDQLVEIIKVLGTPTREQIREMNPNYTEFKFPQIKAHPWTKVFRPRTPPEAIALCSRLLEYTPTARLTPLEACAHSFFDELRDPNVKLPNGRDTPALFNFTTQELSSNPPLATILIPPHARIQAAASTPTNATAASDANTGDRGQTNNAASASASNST

With `Cl.NC1(c2ccc(-c3nc4ccn5c(=O)[nH]nc5c4cc3-c3ccccc3)cc2)CCC1` [MK2206, 8-[4-(1-aminocyclobutyl)phenyl]-9-phenyl-1,2,4-triazolo[3,4-f][1,6]naphthyridin-3(2H)-one], in assay [1], the “TFEB nucleus-to-cytosol translocation on serum re-stimulation” value is “prevented”. Further, the TFE3 nuclear translocation entry in assay [2] is on record as “promoted nuclear translocation of these two factors”.
For the compound `OC[C@H]1O[C@H](O[C@H]2O[C@H](CO)[C@@H](O)[C@H](O)[C@H]2O)[C@H](O)[C@@H](O)[C@@H]1O` [trehalose, a-D-glucopyranosyl a-D-glucopyranoside], the TFEB nuclear translocation result in assay [3] is recorded as “induce TFEB nuclear translocation even with an active mTORC1”; in assay [8], “induces nuclear translocation of TFEB”. Moreover, the “pain sensitivity in hot plate assay” value in assay [4] is reported as “fully restored”. In addition, in assay [5], the “phosphorylation of TFEB S211” value is “does not modify phosphorylation of TFEB S211”. Also, the GSK3β activity result in assay [6] was “no detectable effect”. The “punctate autofluorescent storage material” value in assay [7] is reported as “significantly reduced”.
